Test results from ChEMBL document CHEMBL4028815, “Novel phosphonate analogs of sulforaphane: Synthesis, in vitro and in vivo anticancer activity” (Eur J Med Chem, 2017).
Calls of active or inactive are those of the source. No cut-off for these calls is given here.

What was measured:
[1] = Cytotoxicity against human LoVo/DX cells assessed as cell death at >15 uM after 24 hrs; format: cell-based
LoVo [2] = assay: Potency index, ratio of sulforaphane IC50 to compound IC50 for human LoVo cells; format: functional
HL60/MX2 = assay: Cytotoxicity against human HL60/MX2 cells after 72 hrs by sulforhodamine B assay; format: functional, cell-based; conditions: HL60/MX2, 72 h
[3] = Cytotoxicity against human LoVo/DX cells after 72 hrs by sulforhodamine B assay; format: functional, cell-based
[4] = Resistance index, ratio of IC50 for human LoVo/DX cells to IC50 for human LoVo cells; format: functional
A549 = assay: Cytotoxicity against human A549 cells after 72 hrs by sulforhodamine B assay; format: functional, cell-based; conditions: A549, 72 h
4T1 [5] = assay: Cytotoxicity against mouse 4T1 cells after 72 hrs by sulforhodamine B assay; format: functional, cell-based; conditions: 4T1, 72 h
MES-SA = assay: Cytotoxicity against human MESSA cells after 72 hrs by sulforhodamine B assay; format: functional, cell-based
MES-SA/Dx5 = assay: Cytotoxicity against human MESSA/DX5 cells after 72 hrs by sulforhodamine B assay; format: functional, cell-based; conditions: MES-SA/Dx5, 72 h
LoVo/DX [6] = assay: Cell cycle arrest in human LoVo/DX cells assessed as decrease in accumulation at G0/G1 phase at 15 uM after 24 hrs by propidium iodide staining based flow cytometric method; format: functional
LoVo [7] = assay: Cell cycle arrest in human LoVo cells assessed as accumulation at G2/M phase at 15 uM after 24 hrs by propidium iodide staining based flow cytometric method; format: functional
LoVo [8] = assay: Cell cycle arrest in human LoVo cells assessed as decrease in accumulation at G0/G1 phase at 15 uM after 24 hrs by propidium iodide staining based flow cytometric method; format: functional
LoVo [9] = assay: Induction of apoptosis in human LoVo cells assessed as increase in caspase3/7 activity at 15 uM using Ac-DEVD-ACC as substrate pretreated for 24 hrs followed by substrate addition measured for 2 hrs by fluorescence assay relative to control; format: functional
LoVo/DX [10] = assay: Induction of apoptosis in human LoVo/DX cells assessed as increase in caspase3/7 activity at >15 uM using Ac-DEVD-ACC as substrate pretreated for 24 hrs followed by substrate addition measured for 2 hrs by fluorescence assay; format: functional, cell-based
LoVo [11] = assay: Induction of apoptosis in human LoVo cells assessed as increase in caspase3/7 activity at >15 uM using Ac-DEVD-ACC as substrate pretreated for 24 hrs followed by substrate addition measured for 2 hrs by fluorescence assay; format: functional, cell-based
LoVo [12] = assay: Induction of apoptosis in human LoVo cells assessed as loss of mitochondrial membrane potential at 15 uM after 24 hrs by JC-1 staining based flow cytometric method relative to control; format: functional
[13] = Induction of apoptosis in human LoVo/DX cells assessed as loss of mitochondrial membrane potential at 15 uM after 24 hrs by JC-1 staining based flow cytometric method relative to control; format: functional
LoVo [14] = assay: Induction of apoptosis in human LoVo cells assessed as late apoptotic cells at 15 uM after 24 hrs by APC-Annexin-V/propidium iodide staining based flow cytometric method relative to control; format: functional
[15] = Induction of apoptosis in human LoVo/DX cells assessed as late apoptotic cells at 15 uM after 24 hrs by APC-Annexin-V/propidium iodide staining based flow cytometric method relative to control; format: functional
LoVo [16] = assay: Induction of apoptosis in human LoVo cells assessed as increase in early apoptotic cells at 15 uM after 24 hrs by APC-Annexin-V/propidium iodide staining based flow cytometric method relative to control; format: functional
4T1 [17] = assay: Anti-tumor activity against mouse 4T1 cells implanted in BALB/c mdb mouse assessed as tumor growth inhibition at 100 umol/kg, ip administered five times weekly measured on day 15 post cell innoculum relative to control; format: functional; conditions: 4T1, ip, 360 h, read-out: TGI
4T1 [18] = assay: Anti-tumor activity against mouse 4T1 cells implanted in BALB/c mdb mouse assessed as tumor growth inhibition at 100 umol/kg, ip administered five times weekly measured on day 29 post cell innoculum relative to control; format: functional; conditions: 4T1, ip, 696 h, read-out: TGI
Mus musculus [19] = assay: Toxicity in BALB/c mdb mouse implanted with mouse 4T1 cells assessed as body weight loss at 100 umol/kg, ip administered five times weekly measured 3 times weekly during compound dosing; format: organism-based; conditions: in vivo
Mus musculus [20] = assay: Toxicity in BALB/c mdb mouse implanted with mouse 4T1 cells assessed as spleen weight at 100 umol/kg, ip administered five times weekly measured at 29 day post cell innoculum (reference value: 0.603 +/- 0.133 g); format: organism-based; conditions: in vivo, 696 h
Mus musculus [21] = assay: Toxicity in BALB/c mdb mouse implanted with mouse 4T1 cells assessed as lung weight at 100 umol/kg, ip administered five times weekly measured at 29 day post cell innoculum (reference value: 0.2 +/- 0.018 g); format: organism-based; conditions: in vivo, 696 h
4T1 [22] = assay: Anti-tumor activity against mouse 4T1 cells implanted in BALB/c mdb mouse assessed as lung metastasis at 100 umol/kg, ip administered five times weekly measured at 29 days post cell innoculum (reference value: 56 +/- 25); format: functional
Mus musculus [23] = assay: Toxicity in BALB/c mdb mouse implanted with mouse 4T1 cells assessed as WBC level at 100 umol/kg, ip administered five times weekly measured at 29 day post cell innoculum (reference value: 212.3 +/- 82.8 10^3/uL); format: organism-based; conditions: in vivo, 696 h
Mus musculus [24] = assay: Toxicity in BALB/c mdb mouse implanted with mouse 4T1 cells assessed as RBC level at 100 umol/kg, ip administered five times weekly measured at 29 day post cell innoculum (reference value: 8.6 +/- 0.9 10^6/uL); format: organism-based; conditions: in vivo, 696 h
Mus musculus [25] = assay: Toxicity in BALB/c mdb mouse implanted with mouse 4T1 cells assessed as hemoglobin level at 100 umol/kg, ip administered five times weekly measured at 29 day post cell innoculum (reference value: 15.1 +/- 1.5 g/dl); format: organism-based; conditions: in vivo, 696 h
Mus musculus [26] = assay: Toxicity in BALB/c mdb mouse implanted with mouse 4T1 cells assessed as serum PLT level at 100 umol/kg, ip administered five times weekly measured at 29 day post cell innoculum (reference value: 972 +/- 157 10^3/uL); format: organism-based; conditions: in vivo, 696 h
Mus musculus [27] = assay: Toxicity in BALB/c mdb mouse implanted with mouse 4T1 cells assessed as serum ALT level at 100 umol/kg, ip administered five times weekly measured at 29 day post cell innoculum (reference value: 23.8 +/- 2.2 U/L); format: organism-based; conditions: in vivo, 696 h
Mus musculus [28] = assay: Toxicity in BALB/c mdb mouse implanted with mouse 4T1 cells assessed as serum AST level at 100 umol/kg, ip administered five times weekly measured at 29 day post cell innoculum (reference value: 136 +/- 10.3 U/L); format: organism-based; conditions: in vivo, 696 h
Mus musculus [29] = assay: Toxicity in BALB/c mdb mouse implanted with mouse 4T1 cells assessed as serum creatinine level at 100 umol/kg, ip administered five times weekly measured at 29 day post cell innoculum (reference value: 9.3 +/- 1.2 umol/L); format: organism-based; conditions: in vivo, 696 h
Mus musculus [30] = assay: Toxicity in BALB/c mdb mouse implanted with mouse 4T1 cells assessed as serum urea level at 100 umol/kg, ip administered five times weekly measured at 29 day post cell innoculum (reference value: 3.8 +/- […]); format: organism-based; conditions: in vivo, 696 h
LoVo [31] = assay: Cytotoxicity against human LoVo cells assessed as cell death at >15 uM after 24 hrs; format: cell-based

Compound: O=P(CCCCCCN=C=S)(Oc1ccccc1)Oc1ccccc1
- Activity [1]: Toxic
- Ratio IC50 (LoVo [2]): 10
- IC50 (HL60/MX2): 3.3 µM
- IC50 [3]: 11.2 µM
- Ratio IC50 [4]: 4
- IC50 (A549): 11.1 µM
- IC50 (4T1 [5]): 2.9 µM
- IC50 (MES-SA): 10.6 µM
- IC50 (MES-SA/Dx5): 8.3 µM
- Activity (LoVo/DX [6]): Active
- Activity (LoVo [7]): Active
- Activity (LoVo [8]): Active
- fold change (FC) (LoVo [9]): 6.8
- Activity (LoVo/DX [10]): inactive
- Activity (LoVo [11]): inactive
- Activity (LoVo [12]): 79.3%
- Activity [13]: 67%
- Activity (LoVo [14]): 54.6%
- Activity [15]: 59.7%
- Activity (LoVo [16]): inactive
- inhibition in vivo at 100 µmol/kg (4T1 [17]): 23.1%
- inhibition in vivo at 100 µmol/kg (4T1 [18]): -6.4%
- Activity (Mus musculus [19]): <= 10%
- Activity (Mus musculus [20]): 0.632 g
- Activity (Mus musculus [21]): 0.294 g
- Activity (4T1 [22]): 46
- Activity (Mus musculus [23]): 375.9 ×10³ /uL
- Activity (Mus musculus [24]): 11.6 ×10⁶ /uL
- Activity (Mus musculus [25]): 20.8 g/dL
- Activity (Mus musculus [26]): 855 ×10³ /uL
- Activity (Mus musculus [27]): 33.3 U/L
- Activity (Mus musculus [28]): 153 U/L
- Activity (Mus musculus [29]): 8.4 µmol/L
- Activity (Mus musculus [30]): 4.9 mmol/L
- Activity (LoVo [31]): Toxic
